The experiment deals with ATGL-KO iPSCs. In words: High throughput iPSC chemical screening, Oil Red O (ORO) lipid accumulation. On Z-score: test concentration or dose not given here. Type of experiment: cell-based, mouse. The note with it: for Rank in normalized ORO score from screen: glycolytic switch compounds.
The mark [1] stands for this setting: normalized ORO level vs DMSO-treated cells, compound present during 7 days differentiation, 96-well, negative = decrease in lipid accumulation.

Structures can show the parent of a compound that is named as a salt. Where two headings read alike, the source gives them in different places.

Results on 70 compounds are retold here after patent US9393221B2, “Methods and compounds for reducing intracellular lipid storage” (THE GENERAL HOSPITAL CORPORATION, priority 2011, dated 2016).

Consider `O=C(Nc1ccccc1)OCC(CN1CCCCC1)OC(=O)Nc1ccccc1` (stereo not drawn) [Diperodon hydrochloride], for which, under setting [1], the Z-score is reported as −0.6048.
The compound `C[N+]1(C)CCC(=C(c2ccccc2)c2ccccc2)CC1` [Diphemanil methylsulfate] displayed a Z-score under setting [1] of 0.6045.
Under setting [1], `CN(C)CCOC(c1ccccc1)c1ccccc1` [Diphenhydramine hydrochloride] returned a Z-score of 1.308.
In turn, `OC(CCCN1CCCCC1)(c1ccccc1)c1ccccc1` [Diphenidol hydrochloride] returned a Z-score under setting [1] of −0.7294.
Under setting [1], `CN1CCC(OC(c2ccccc2)c2ccccc2)CC1` [Diphenylpyraline hydrochloride] registered a Z-score of 0.246.
In turn, `CNCC(O)c1ccc(OC(=O)C(C)(C)C)c(OC(=O)C(C)(C)C)c1` (stereo not drawn) [Dipivefrin hydrochloride] had a Z-score under setting [1] of 1.363.
Same read-out and setting: then `Cn1c(=O)c2c(ncn2CC(O)CO)n(C)c1=O` (stereo not drawn) [Diprophylline], with −0.3767; and `OCCN(CCO)c1nc(N2CCCCC2)c2nc(N(CCO)CCO)nc(N3CCCCC3)c2n1` [Dipyridamole], with 0.4282.
Same read-out and setting: the result for `Cc1c(N(C)CS(=O)(=O)[O-])c(=O)n(-c2ccccc2)n1C.[Na+]` [Dipyrone] reads 1.061; that for `CC(C)N(CCC(C(N)=O)(c1ccccc1)c1ccccn1)C(C)C` (stereo not drawn) [Disopyramide], −1.1535.
The same measure, in the same setting: the result for `CCN(CC)C(=S)SSC(=S)N(CC)CC` [Disulfiram] reads 15.5036.
The compound `C[C@]12N[C@H](Cc3ccccc31)c1ccccc12` [Dizocilpine maleate] returned a Z-score under setting [1] of −1.1505.
Under setting [1], `CC(CCc1ccc(O)cc1)NCCc1ccc(O)c(O)c1` (stereo not drawn) [Dobutamine hydrochloride] showed a Z-score of −0.4732.
The compound `CCN[C@H]1C[C@H](C)S(=O)(=O)c2sc(S(N)(=O)=O)cc21` [Dorzolamide hydrochloride] gave a Z-score under setting [1] of 1.587.
`CN(C)CC/C=C1\c2ccccc2CSc2ccccc21` [Dosulepin hydrochloride]: under setting [1], the Z-score is 0.00689.
Regarding `COc1cc2nc(N3CCN(C(=O)C4COc5ccccc5O4)CC3)nc(N)c2cc1OC` (stereo not drawn) [Doxazosin mesylate], the Z-score under setting [1] is given as −1.0121.
The same measure, in the same setting: then `CN(C)CCC=C1c2ccccc2COc2ccccc21` [Doxepin hydrochloride], with −1.0091.
On to `COc1cccc2c1C(=O)c1c(O)c3c(c(O)c1C2=O)C[C@@](O)(C(=O)CO)C[C@@H]3O[C@H]1C[C@H](N)[C@H](O)[C@H](C)O1` [Doxorubicin hydrochloride], for which, under setting [1], the Z-score worked out at 32.6438.
As to `C[C@H]1c2cccc(O)c2C(=O)C2=C(O)[C@]3(O)C(=O)C(C(N)=O)=C(O)[C@@H](N(C)C)[C@@H]3[C@@H](O)[C@@H]21` [Doxycycline hydrochloride], under setting [1], the Z-score is 2.356.
Still for that read-out and setting: then `CN(C)CCOC(C)(c1ccccc1)c1ccccn1` (stereo not drawn) [Doxylamine succinate], with 0.07172; and `CCN(CC)CCOC(=O)C(c1ccccc1)C1CCCCC1` (stereo not drawn) [Drofenine hydrochloride], with −0.0455.
Same read-out and setting: then `O=C(CCCN1CC=C(n2c(=O)[nH]c3ccccc32)CC1)c1ccc(F)cc1` [Droperidol], with −0.5996; and `COc1c2c(nc3ccccc13)OC(C(C)(O)CO)C2` (stereo not drawn) [Dubinidine], with 0.2385; and `CCCCOc1ccc(C(=O)CCN2CCCCC2)cc1` [Dyclonine hydrochloride], with −1.4276.
Still for that read-out and setting: then `CC(=O)[C@H]1CC[C@H]2[C@@H]3C=CC4=CC(=O)CC[C@@]4(C)[C@@H]3CC[C@]12C` [Dydrogesterone], with −0.7044.
As for `O=c1c2ccccc2[se]n1-c1ccccc1` [Ebselen], the “Rank in normalized ORO score from screen” value is on record as 52. Besides, under setting [1], the Z-score is reported as −1.5273.
`Clc1ccc(COC(Cn2ccnc2)c2ccc(Cl)cc2Cl)cc1` (stereo not drawn) [Econazole nitrate]: the Z-score under setting [1] is given as −0.8488.
The same measure, in the same setting: the result for `CC[N+](C)(C)c1cccc(O)c1` [Edrophonium chloride] reads 0.4533; that for `Cc1c2ccncc2c(C)c2c1[nH]c1ccccc12` [Ellipticine], 36.711; that for `CC[C@H]1CN2CCc3cc(OC)c(OC)cc3[C@@H]2C[C@@H]1C[C@H]1NCCc2cc(OC)c(OC)cc21` [Emetine dihydrochloride], 32.7653.
On the same count and under the same terms, then `CCOC(=O)[C@H](CCc1ccccc1)N[C@@H](C)C(=O)N1CCC[C@H]1C(=O)O` [Enalapril maleate], with 0.1645.
Regarding `C=CCOC(Cn1ccnc1)c1ccc(Cl)cc1Cl` (stereo not drawn) [Enilconazole], the Z-score under setting [1] is −0.0014.
Compound `CCn1cc(C(=O)O)c(=O)c2cc(F)c(N3CCNCC3)nc21` [Enoxacin] came in with a Z-score under setting [1] of −0.7386.
In turn, `C[C@]12CC[C@H](O)C[C@@H]1CC[C@@H]1[C@@H]2CC[C@]2(C)C(=O)CC[C@@H]12` [Epiandrosterone] gave a Z-score of −0.835.
Compound `Oc1cc(O)c2c(c1)O[C@H](c1ccc(O)c(O)c1)[C@H](O)C2` [Epicatechin-(−)] showed a Z-score under setting [1] of 0.9251.
The same measure, in the same setting: then `COc1cc(C)nc(-n2nc(C)cc2OC)n1` [Epirizole], with −0.7031.
The same measure, in the same setting: the result for `C[C@]12C[C@H]3S[C@H]3C[C@@H]1CC[C@@H]1[C@@H]2CC[C@]2(C)[C@@H](O)CC[C@@H]12` [Epitiostanol] reads −1.7564; that for `CC[C@]12CCCN3CCc4c(n(c5ccccc45)[C@](O)(C(=O)OC)C1)[C@@H]32` [Epivincamine], 0.1161.
Same read-out and setting: the result for `C[C@]12CC[C@H]3C(=CCc4cc(O)ccc43)[C@@H]1CCC2=O` [Equilin] reads −1.0652; that for `CC(C)C[C@H]1C(=O)N2CCC[C@H]2[C@]2(O)O[C@](NC(=O)[C@@H]3C=C4c5cccc6[nH]cc(c56)C[C@H]4N(C)C3)(C(C)C)C(=O)N12` [Ergocryptine-alpha], −0.2816; that for `CC[C@H]1OC(=O)[C@H](C)[C@@H](O[C@H]2C[C@@](C)(OC)[C@@H](O)[C@H](C)O2)[C@H](C)[C@@H](O[C@@H]2O[C@H](C)C[C@H](N(C)C)[C@H]2O)[C@](C)(O)C[C@@H](C)C(=O)[C@H](C)[C@@H](O)[C@]1(C)O` [Erythromycin], 1.131.
Turning to `O=c1ccc2cc(O)c(O)cc2o1` [Esculetin], under setting [1], the Z-score is recorded as −0.9295.
Take `O=c1ccc2cc(O[C@@H]3O[C@H](CO)[C@@H](O)[C@H](O)[C@H]3O)c(O)cc2o1` [Esculin Hydrate]: under setting [1], the Z-score is −1.2808.
In turn, `CNC(=O)Oc1ccc2c(c1)[C@]1(C)CCN(C)[C@@H]1N2C.CNC(=O)Oc1ccc2c(c1)[C@]1(C)CCN(C)[C@@H]1N2C.O=S(=O)(O)O` [Eserine sulfate, physostigmine sulfate] yielded a Z-score of 0.899.
Under setting [1], `C[C@]12CC[C@@H]3c4ccc(O)cc4CC[C@H]3[C@@H]1CC[C@@H]2O` [Estradiol-17 beta] had a Z-score of −0.9541.
Under setting [1], `C[C@]12CC[C@@H]3c4ccc(O)cc4CC[C@H]3[C@@H]1C[C@@H](O)[C@@H]2O` [Estriol] had a Z-score of 0.06999.
`C[C@]12CC[C@@H]3c4ccc(O)cc4CC[C@H]3[C@@H]1CCC2=O` [Estrone] returned a Z-score under setting [1] of −1.8166.
The same measure, in the same setting: the result for `C[C@]12CC[C@@H]3c4ccc(OS(=O)(=O)O)cc4CC[C@H]3[C@@H]1CCC2=O` [Estropipate] reads −1.7711.
On the same count and under the same terms, the result for `O=C(Cn1ccnc1[N+](=O)[O-])NCCO` [Etanidazole] reads 0.6681.
Same read-out and setting: the result for `C=C(CC)C(=O)c1ccc(OCC(=O)O)c(Cl)c1Cl` [Ethacrynic acid] reads −0.302.
`CC[C@@H](CO)NCCN[C@@H](CC)CO` [Ethambutol dihydrochloride] displayed a Z-score under setting [1] of −0.6303.
Still for that read-out and setting: the result for `CCN(CC)C(=O)c1ccc(O)c(OC)c1` [Ethamivan] reads −0.565; that for `O=S(=O)(O)c1cc(O)ccc1O` [Ethamsylate], 0.04738.
On the same count and under the same terms, then `CCOc1ccc(Cc2nccc3cc(OCC)c(OCC)cc23)cc1OCC` [Ethaverine hydrochloride], with 17.3528; and `CCc1cc(C(N)=S)ccn1` [Ethionamide], with −0.9932; and `C#C[C@]1(O)CC[C@H]2[C@@H]3CCC4=CC(=O)CC[C@]4(C)[C@H]3CC[C@@]21C` [Ethisterone], with −0.2541.
Consider `CCN(CC)C(C)CN1c2ccccc2Sc2ccccc21` (stereo not drawn) [Ethopropazine hydrochloride], for which the Z-score under setting [1] was −1.7382.
Still for that read-out and setting: then `CCC1(C)CC(=O)NC1=O` (stereo not drawn) [Ethosuximide], with 1.076.
For `CCN1C(=O)NC(c2ccccc2)C1=O` (stereo not drawn) [Ethotoin], the Z-score under setting [1] was −0.7327.
The same measure, in the same setting: then `CCOc1ccc2c(c1)C(C)=CC(C)(C)N2` [Ethoxyquin], with −0.0471.
Regarding `C#C[C@]1(OC(C)=O)CC[C@H]2[C@@H]3CCC4=C[C@@H](OC(C)=O)CC[C@@H]4[C@H]3CC[C@@]21C` [Ethynodiol diacetate], the “Rank in normalized ORO score from screen” value is 61. Under setting [1], this compound showed a Z-score of −1.4458.
Compound `C#C[C@]1(O)CC[C@H]2[C@@H]3CCc4cc(OC)ccc4[C@H]3CC[C@@]21C` [Ethynylestradiol 3-methyl ether] displayed a Z-score under setting [1] of −0.93.
Still for that read-out and setting: the result for `CC(O)(P(=O)(O)O)P(=O)(O)O` [Etidronic acid, disodium salt] reads −0.1368.
Under setting [1], `CCc1cccc(CC)c1NC(=O)CN(CC(=O)O)CC(=O)O` [Etifenin] showed a Z-score of −1.0427.
In turn, `CCNCC(O)c1cccc(O)c1` (stereo not drawn) [Etilefrine hydrochloride] registered a Z-score under setting [1] of 0.1398.
On the same count and under the same terms, the result for `CCc1cccc2c3c([nH]c12)C(CC)(CC(=O)O)OCC3` (stereo not drawn) [Etodolac] reads 1.6287.
For `Cn1c(=O)c2c(ncn2CCO)n(C)c1=O` [Etofylline], the Z-score under setting [1] is −0.8406.
Compound `CCOC(=O)c1cncn1[C@H](C)c1ccccc1` [Etomidate] gave a Z-score under setting [1] of 0.2274.
`COc1cc([C@@H]2c3cc4c(cc3[C@@H](O[C@@H]3O[C@@H]5CO[C@@H](C)O[C@H]5[C@H](O)[C@H]3O)[C@H]3COC(=O)[C@H]23)OCO4)cc(OC)c1O` [Etoposide] yielded a Z-score under setting [1] of 39.4033.
Same read-out and setting: then `CC1CC(OC(=O)C(O)c2ccccc2)CC(C)(C)N1C` (stereo not drawn) [Eucatropine hydrochloride], with 0.9133.
